Results published in patent US20240083885A1, “COMPOSITIONS AND METHODS FOR INHIBITING M PRO PROTEASE ACTIVITY AND FOR PREVENTING AND TREATING SARS-COV-2 INFECTION” (priority 2020, published 2024).
Read-outs that look alike come from different tables or passages of the source.

Experiments:
SARS-CoV-2 M^pro = SARS-CoV-2 M^pro (Severe acute respiratory syndrome coronavirus 2 (2019-nCoV) (SARS-CoV-2), UniProt P0DTD1); assay: biochemical
SARS-CoV-2 = assay: microbe, parasite or virus in culture; type: cell-based
in vitro = settings: African green monkey
Vero E6 cells = assay: Cytotoxicity in Vero E6 cells (neutral red uptake); settings: read-out: CC50 in Vero E6 cells
[1] = read-out: SARS-COV-2 main protease enzymatic inhibition IC50
[2] = Severe acute respiratory syndrome coronavirus 2, Vero C1008; read-out: SARS-COV-2 antiviral activity using immunofluorescence assay EC50
[3] = SARS-COV-2 main protease enzymatic inhibition IC50
[4] = read-out: IC50 against SARS-CoV-2 M^pro

Work on `C[C@H](NC(=O)C(c1cccnc1)N(C(=O)c1ccco1)c1ccc(N2CCCCC2)cc1)c1ccccc1` (some centres unmarked) [Jun8-97-1] yielded an IC50 (SARS-CoV-2 M^pro; [1]) of 5.46 µM.

In the case of `CC(C)(C)NC(=O)C(c1cnccn1)N(C(=O)c1ccco1)c1ccc(C(C)(C)C)cc1` (centres unmarked) [Jun9-17-2], the IC50 (SARS-CoV-2 M^pro; [1]) is reported as 4.93 µM.

For `O=C(NC1CCCC1)C(c1cccnc1)N(C(=O)c1c[nH]cn1)c1ccc(-c2ccccc2)cc1` (centres unmarked) [Jun9-3-5], the IC50 (SARS-CoV-2 M^pro; [1]) was 7.27 µM.

`O=C(NC1CCCCC1)C(c1cccnc1)N(C(=O)c1c[nH]cn1)c1ccc(-c2ccccc2)cc1` (centres unmarked) [Jun9-4-2] gave an IC50 (SARS-CoV-2 M^pro; [1]) of 5.82 µM.

In the case of `C[C@H](NC(=O)[C@H](c1cccnc1)N(C(=O)C(Cl)Cl)c1ccc(-c2ccccc2)cc1)c1ccc(Br)cc1` [Jun9-90-3S, N-([1,1′-biphenyl]-4-yl)-N-((S)-2-(((S)-1-(4-bromophenyl)ethyl)amino)-2-oxo-1-(pyridin-3-yl)ethyl)-2,2-dichloroacetamide], the IC50 (SARS-CoV-2 M^pro; IC50 against SARS-CoV-2 M^pro) is reported as > 20 µM.

With `C[C@H](NC(=O)C(c1cccnc1)N(C(=O)c1ccco1)c1ccc(-c2ccco2)cc1)c1ccccc1` (some centres unmarked) [Jun8-91-5] the IC50 (SARS-CoV-2 M^pro; [1]) was 2.54 µM.

With `O=C(NCCCc1ccccc1)C(c1cccnc1)N(C(=O)c1ccco1)c1ccc(-c2ccccc2)cc1` (centres unmarked) [Jun9-12-2] the IC50 (SARS-CoV-2 M^pro; [1]) was 1.06 µM, the “Selectivity index SI CC50/EC50” value (SARS-CoV-2) was >98.0 and the EC50 (SARS-CoV-2; Severe acute respiratory syndrome coronavirus 2, Vero C1008; Vero E6 cells, immunofluorescence assay; read-out: SARS-CoV-2 antiviral assay EC50) was 2.04 ± 1.08 µM. For the same molecule, the EC50 (SARS-CoV-2; [2]) was 2.13 µM, the EC50 (SARS-CoV-2; Severe acute respiratory syndrome coronavirus 2, Vero C1008; read-out: antiviral EC50 against SARS-CoV-2 in Vero E6 cells) was 0.82 to 4.54 µM and the CC50 at 5 days (in vitro; Vero E6 Cytotoxicity CC50 (μM)) was > 200 µM. The CC50 (Vero E6 cells) was > 100 µM.

`O=C(NCC(c1ccccc1)c1ccccc1)C(c1cccnc1)N(C(=O)c1ccco1)c1ccc(-c2ccccc2)cc1` (centres unmarked) [Jun9-5-3] gave an IC50 (SARS-CoV-2 M^pro; [1]) of 1.48 µM.

Work on `C[C@H](NC(=O)C(c1cccnc1)N(C(=O)c1ccco1)c1ccc(-c2cccs2)cc1)c1ccccc1` (some centres unmarked) [Jun8-91-4] yielded an IC50 (SARS-CoV-2 M^pro; [3]) of 14.6 µM.

`C[C@H](NC(=O)C(c1cccnc1)N(C(=O)c1ccco1)c1ccc(C(C)(C)C)cc1)c1ccccc1` (some centres unmarked) [Jun8-56-1] gave an IC50 (SARS-CoV-2 M^pro; [1]) of 5.7 µM and an EC50 (SARS-CoV-2; [2]) of 17.2 µM.

`C[C@H](NC(=O)C(c1cccnc1)N(C(=O)c1cnco1)c1ccc(-c2ccccc2)cc1)c1ccccc1` (some centres unmarked) [Jun8-92-2] gave an IC50 (SARS-CoV-2 M^pro; [1]) of 4.99 µM.

`C[C@H](NC(=O)C(c1cccnc1)N(C(=O)c1ccco1)c1ccc(-c2ccccn2)cc1)c1ccccc1` (some centres unmarked) [Jun9-6-4] gave an IC50 (SARS-CoV-2 M^pro; [1]) of 1.81 µM.

For `C[C@H](NC(=O)[C@H](c1cccnc1)N(C(=O)C(Cl)(Br)Br)c1ccc(-c2ccccc2)cc1)c1ccccc1` [Jun9-89-4S, N-([1,1′-biphenyl]-4-yl)-2,2-dibromo-2-chloro-N-((S)-2-oxo-2-(((S)-1-phenylethyl)amino)-1-(pyridin-3-yl)ethyl)acetamide], the IC50 (SARS-CoV-2 M^pro; [4]) was 9.04 µM.

With `CC(C)NC(=O)C(c1cccnc1)N(C(=O)c1ccco1)c1ccc(C(C)(C)C)cc1` (centres unmarked) [Jun8-88-1] the IC50 (SARS-CoV-2 M^pro; [1]) was 5.37 µM.

With `C[C@H](NC(=O)C(c1cccnc1)N(C(=O)c1ccno1)c1ccc(-c2ccccc2)cc1)c1ccccc1` (some centres unmarked) [Compound 25] the IC50 (SARS-CoV-2 M^pro; [4]) was 2.47 ± 0.27 µM and the CC50 (Vero E6 cells) was > 100 µM.

Molecule `C[C@H](NC(=O)C(c1cccnc1)N(C(=O)c1ccco1)c1ccc(C2CCCCC2)cc1)c1ccccc1` (some centres unmarked) [Jun8-66-1] has an IC50 (SARS-CoV-2 M^pro; [1]) of 0.51 µM.

Molecule `CC(C)(C)c1ccc(N(C(=O)c2ccco2)C(C(=O)NCn2nnc3ccccc32)c2cccnc2)cc1` (centres unmarked) [Jun8-74-1] has an IC50 (SARS-CoV-2 M^pro; [1]) of 8.13 µM.

In the case of `C[C@H](NC(=O)C(c1cccnc1)N(C(=O)c1ccco1)c1ccc(OC(C)(C)C)cc1)c1ccccc1` (some centres unmarked) [Jun9-5-4], the IC50 (SARS-CoV-2 M^pro; [1]) is reported as 21.9 µM.

In the case of `CC(C)(C)c1ccc(N(C(=O)c2ccco2)C(C(=O)NC2CC2)c2cccnc2)cc1` (centres unmarked) [Jun8-58-2], the IC50 (SARS-CoV-2 M^pro; [1]) is reported as 3.86 µM.

With `C[C@H](NC(=O)C(c1cccnc1)N(C(=O)c1ccco1)c1ccc([Si](C)(C)C)cc1)c1ccccc1` (some centres unmarked) [Jun8-75-2] the IC50 (SARS-CoV-2 M^pro; [1]) was 1.97 µM and the EC50 (SARS-CoV-2; Severe acute respiratory syndrome coronavirus 2, Vero C1008, read-out: SARS-COV-2 antiviral activity using immunofluorescence assay EC50) was 8.84 µM.

In the case of `C[C@@H](CCc1ccccc1)NC(=O)[C@H](c1cccnc1)N(C(=O)C(Cl)Cl)c1ccc(-c2ccccc2)cc1` [Jun9-90-4S, N-([1,1′-biphenyl]-4-yl)-2,2-dichloro-N-((S)-2-oxo-2-(((S)-4-phenylbutan-2-yl)amino)-1-(pyridin-3-yl)ethyl)acetamide], the IC50 (SARS-CoV-2 M^pro; IC50 against SARS-CoV-2 M^pro) is reported as > 20 µM.

With `O=C(NC1CCCCC1)C(c1cccnc1)N(C(=O)c1ccco1)c1ccc(-c2ccccc2)cc1` (centres unmarked) [Jun9-3-3] the IC50 (SARS-CoV-2 M^pro; [1]) was 2.68 µM.

Molecule `C[C@H](NC(=O)C(c1cccnc1)N(C(=O)C(Cl)(Cl)Br)c1ccc(-c2ccccc2)cc1)c1ccccc1` (stereo partly drawn) [Jun9-89-3, N-([1,1′-biphenyl]-4-yl)-2-bromo-2,2-dichloro-N-(2-oxo-2-(((S)-1-phenylethyl)amino)-1-(pyridin-3-yl)ethyl)acetamide] has an IC50 (SARS-CoV-2 M^pro; [4]) of 1.2 µM and a CC50 at 5 days (in vitro; CC50 in Vero E6 cells) of 32.4 µM.

`C[C@H](NC(=O)[C@H](c1cccnc1)N(C(=O)C(Br)(Br)Br)c1ccc(-c2ccccc2)cc1)c1ccccc1` [Jun9-88-6S, N-([1,1′-biphenyl]-4-yl)-2,2,2-tribromo-N-((S)-2-oxo-2-(((S)-1-phenylethyl)amino)-1-(pyridin-3-yl)ethyl)acetamide] showed an IC50 (SARS-CoV-2 M^pro; [4]) of 7.16 µM and a CC50 at 5 days (in vitro; CC50 in Vero E6 cells) of 5.99 µM.

`C=C(Cl)C(=O)N(c1ccc(-c2ccccc2)cc1)C(C(=O)N[C@@H](C)c1ccccc1)c1cccnc1` (stereo partly drawn) [Jun10-38-2, N-{[1,1′-biphenyl]-4-yl}-2-chloro-N-({[(1S)-1-phenylethyl]carbamoyl}(pyridin-3-yl)methyl)prop-2-enamide] gave an IC50 (SARS-CoV-2 M^pro; [4]) of 4.22 µM.

`C[C@H](NC(=O)C(c1cccnc1)N(C(=O)c1ccco1)c1ccc(Cc2ccccc2)cc1)c1ccccc1` (some centres unmarked) [Jun8-92-4] showed an IC50 (SARS-CoV-2 M^pro; [1]) of 35.1 µM.

`CC(C)(C)c1ccc(N(C(=O)c2ccco2)C(C(=O)NC2CCCC2)c2cccnc2)cc1` (centres unmarked) [Jun8-88-2] gave an IC50 (SARS-CoV-2 M^pro; [1]) of 2.51 µM and an EC50 (SARS-CoV-2; [2]) of 12.9 µM.

`C[C@H](NC(=O)C(c1cccnc1)N(C(=O)c1ccno1)c1ccc(C2CCCCC2)cc1)c1ccccc1` (some centres unmarked) [Compound 36] gave an IC50 (SARS-CoV-2 M^pro; [4]) of 0.81 ± 0.24 µM.

`C[C@H](NC(=O)[C@H](c1cccnc1)N(C(=O)C(Br)Br)c1ccc(-c2ccccc2)cc1)c1ccccc1` [Jun9-89-2S, N-([1,1′-biphenyl]-4-yl)-2,2-dibromo-N-((S)-2-oxo-2-(((S)-1-phenylethyl)amino)-1-(pyridin-3-yl)ethyl)acetamide] gave an IC50 (SARS-CoV-2 M^pro; IC50 against SARS-CoV-2 M^pro) of 2.44 µM and a CC50 at 5 days (in vitro; CC50 in Vero E6 cells) of 4.57 µM.

In the case of `C[C@H](NC(=O)[C@H](c1cccnc1)N(C(=O)C(Cl)Cl)c1ccc(-c2ccccc2)cc1)c1ccccc1` [Jun9-62-2S, N-([1,1′-biphenyl]-4-yl)-2,2-dichloro-N-((S)-2-oxo-2-(((S)-1-phenylethyl)amino)-1-(pyridin-3-yl)ethyl)acetamide], the IC50 (SARS-CoV-2 M^pro; IC50 against SARS-CoV-2 M^pro) is reported as > 20 µM.

For `C[C@H](NC(=O)C(c1cccnc1)N(C(=O)c1ccco1)c1ccc(-c2cnn(C)c2)cc1)c1ccccc1` (some centres unmarked) [Jun8-91-6], the IC50 (SARS-CoV-2 M^pro; [3]) was 37.3 µM.

In the case of `C[C@H](NC(=O)C(c1cccnc1)N(C(=O)c1ccco1)c1ccc(-c2ccccc2)cc1)c1ccccc1` (single isomer, unassigned) [Compound 23S], the IC50 (SARS-CoV-2 M^pro; IC50 against SARS-CoV-2 M^pro) is reported as > 10 µM and the IC50 (SARS-CoV-2 M^pro; SARS-CoV-2 M^pro IC50 (μM)) is reported as > 10 µM.

In the case of `CC(C)(C)NC(=O)C(c1cnccn1)N(C(=O)c1ccco1)c1ccc(C(C)(C)C)cc1` (centres unmarked) [Compound 27], the CC50 (Vero E6 cells) is reported as > 100 µM.

Work on `C[C@H](NC(=O)C(c1cccnc1)N(C(=O)c1ccco1)c1ccc(-c2ccccc2)cc1)c1ccccc1` (single isomer, unassigned) [Jun8-76-3B] yielded an EC50 (SARS-CoV-2 M^pro; SARS-COV-2 main protease enzymatic inhibition (separated diastereomers, printed as EC50)) of 1.35 µM and an EC50 (SARS-CoV-2; [2]) of 2.97 µM.

With `O=C(NCC(c1ccccc1)c1ccccc1)C(c1cccnc1)N(C(=O)c1ccco1)c1ccc(-c2ccccc2)cc1` (centres unmarked) [Compound 39] the IC50 (SARS-CoV-2 M^pro; IC50 against SARS-CoV-2 M^pro) was < 5 µM and the CC50 (Vero E6 cells) was > 100 µM.

For `COc1ccc(NC(=O)C(c2cccnc2)N(C(=O)c2ccco2)c2ccc(C(C)(C)C)cc2)cc1` (centres unmarked) [Jun9-88-4], the IC50 (SARS-CoV-2 M^pro; [1]) was 7.49 µM.

For `CC(C)(C)c1ccc(N(C(=O)c2ccco2)C(C(=O)Nc2ccc(F)cc2)c2cccnc2)cc1` (centres unmarked) [Jun9-88-3], the IC50 (SARS-CoV-2 M^pro; [1]) was 7.81 µM.
